Tests used:
Assay in all cases: fitness (endpoint OD595 vs no drug) (fraction); higher = more growth
S. aureus DSM 20231 = test system: S. aureus DSM 20231
Outline: (§1)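 Fitness was defined as the optical density at the transition into stationary phase relative to the robust mean of no-drug control wells. Values were capped at 1. Cultures were started at OD595 0.01 in 384-well plates (30 µl, or 55 µl for S. pneumoniae) in TSB, LB Lennox or CY at 37 °C. OD595 was recorded every 30 min over 14 h, with the first reading subtracted as background.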

S. aureus Newman = test system: S. aureus Newman
Outline: as §1

S. pneumoniae D39V = test system: S. pneumoniae D39V
Outline: as §1

B. subtilis 168 = test system: B. subtilis 168
Outline: as §1

O=C(N[C@H](CO)[C@H](O)c1ccc([N+](=O)[O-])cc1)C(Cl)Cl [Chloramphenicol] + CN(C)[C@@H]1C(O)=C(C(N)=O)C(=O)[C@@]2(O)C(O)=C3C(=O)c4c(O)ccc(Cl)c4[C@@](C)(O)[C@H]3C[C@@H]12 [Chlortetracycline]
S. aureus DSM 20231, partner 0.006 µg/mL, one replicate
Conditions	fitness
first compound 0.75 µg/mL	0.62
first compound 1.5 µg/mL	0.558

fitness, S. aureus DSM 20231
Conditions	first compound 0.75 µg/mL	first compound 1.5 µg/mL	first compound 3 µg/mL
partner 0.012 µg/mL	0.476	–	0.0949
partner 0.024 µg/mL	0.288	–	0.0799
partner 0.048 µg/mL	–	0.127	0.0661

O=C(N[C@H](CO)[C@H](O)c1ccc([N+](=O)[O-])cc1)C(Cl)Cl [Chloramphenicol] + CO/N=C(\C(=O)N[C@@H]1C(=O)N2C(C(=O)O)=C(COC(C)=O)CS[C@H]12)c1csc(N)n1 [Cefotaxime]
fitness
Conditions	first compound 0.75 µg/mL	first compound 1.5 µg/mL	first compound 3 µg/mL
S. aureus DSM 20231, partner 0.039 µg/mL	0.649	0.629	0.137
S. aureus DSM 20231, partner 0.078 µg/mL	0.672	0.618	0.191
S. aureus DSM 20231, partner 0.156 µg/mL	0.641	0.599	0.194
S. aureus Newman, partner 0.078 µg/mL	0.534	0.321	0.136
S. aureus Newman, partner 0.156 µg/mL	0.406	0.206	0.0948
S. aureus Newman, partner 0.312 µg/mL	0.198	0.0711	0.065

fitness, one replicate
Conditions	first compound 0.75 µg/mL	first compound 1.5 µg/mL	first compound 3 µg/mL
S. aureus DSM 20231, partner 0.312 µg/mL	0.607	0.586	0.227
S. aureus Newman, partner 0.625 µg/mL	0.0565	0.0229	0.0195
S. aureus Newman, partner 1.25 µg/mL	0.0337	0.0237	0.0515
S. aureus Newman, partner 2.5 µg/mL	0.0674	0.0266	0.0651

O=C(N[C@H](CO)[C@H](O)c1ccc([N+](=O)[O-])cc1)C(Cl)Cl [Chloramphenicol] + CO/N=C(\C(=O)N[C@@H]1C(=O)N2C(C(=O)[O-])=C(C[N+]3(C)CCCC3)CS[C@H]12)c1csc(N)n1 [Cefepime]
fitness
Conditions	partner 0.125 µg/mL	partner 0.25 µg/mL	partner 0.5 µg/mL
S. aureus DSM 20231, first compound 0.75 µg/mL	0.749	0.83	0.811
S. aureus DSM 20231, first compound 1.5 µg/mL	0.661	0.699	0.645
S. aureus DSM 20231, first compound 3 µg/mL	0.19	0.22	0.233
S. aureus Newman, first compound 0.75 µg/mL	0.756	0.685	0.611
S. aureus Newman, first compound 3 µg/mL	–	0.275	0.234

O=C(N[C@H](CO)[C@H](O)c1ccc([N+](=O)[O-])cc1)C(Cl)Cl [Chloramphenicol] + CO[C@@]12[C@H](COC(N)=O)C3=C(C(=O)C(C)=C(N)C3=O)N1C[C@@H]1N[C@@H]12 [Mitomycin C]
fitness
Conditions	first compound 0.75 µg/mL	first compound 1.5 µg/mL	first compound 3 µg/mL
S. aureus DSM 20231, partner 0.0156 µg/mL	0.598	0.431	0.0667
S. aureus DSM 20231, partner 0.0312 µg/mL	0.572	0.367	0.0823
S. aureus DSM 20231, partner 0.0625 µg/mL	0.453	0.245	0.0494
S. aureus Newman, partner 0.0156 µg/mL	0.577	0.442	0.259
S. aureus Newman, partner 0.0312 µg/mL	0.537	0.363	0.144
S. aureus Newman, partner 0.0625 µg/mL	0.399	0.3	0.0938

O=C(N[C@H](CO)[C@H](O)c1ccc([N+](=O)[O-])cc1)C(Cl)Cl [Chloramphenicol] + N[C@@H]1CONC1=O [Cycloserine D]
fitness
Conditions	partner 0.375 µg/mL	partner 0.75 µg/mL	partner 1.5 µg/mL
S. aureus DSM 20231, first compound 0.75 µg/mL	0.642	0.662	0.66
S. aureus DSM 20231, first compound 3 µg/mL	0.0914	0.0972	0.0952
S. aureus Newman, first compound 0.75 µg/mL	0.813	0.824	0.801
S. aureus Newman, first compound 1.5 µg/mL	0.573	0.542	0.571
S. aureus Newman, first compound 3 µg/mL	0.201	0.164	0.165

CCC[C@@H]1C[C@@H](C(=O)N[C@@H]([C@H]2O[C@H](SC)[C@H](O)[C@@H](O)[C@H]2O)[C@H](C)Cl)N(C)C1 [Clindamycin] + CC1=C(C(=O)O)N2C(=O)[C@@H](NC(=O)[C@H](N)c3ccccc3)[C@H]2SC1 [Cephalexin]
Conditions	fitness
B. subtilis 168, first compound 0.0625 µg/mL, partner 0.125 µg/mL	0.556
B. subtilis 168, first compound 0.0625 µg/mL, partner 0.25 µg/mL	0.465
B. subtilis 168, first compound 0.0625 µg/mL, partner 0.5 µg/mL	0.482
B. subtilis 168, first compound 0.125 µg/mL, partner 0.125 µg/mL	0.376
B. subtilis 168, first compound 0.125 µg/mL, partner 0.25 µg/mL	0.344
B. subtilis 168, first compound 0.125 µg/mL, partner 0.5 µg/mL	0.348
B. subtilis 168, first compound 0.25 µg/mL, partner 0.125 µg/mL	0.351
B. subtilis 168, first compound 0.25 µg/mL, partner 0.25 µg/mL	0.335
B. subtilis 168, first compound 0.25 µg/mL, partner 0.5 µg/mL	0.34
S. aureus Newman, first compound 0.0312 µg/mL, partner 0.5 µg/mL	0.795
S. aureus Newman, first compound 0.0312 µg/mL, partner 1 µg/mL	0.82
S. pneumoniae D39V, first compound 0.0125 µg/mL, partner 1 µg/mL	0.733
S. pneumoniae D39V, first compound 0.0125 µg/mL, partner 2 µg/mL	0.453
S. pneumoniae D39V, first compound 0.0125 µg/mL, partner 4 µg/mL	0.0549
S. pneumoniae D39V, first compound 0.025 µg/mL, partner 1 µg/mL	0.519
S. pneumoniae D39V, first compound 0.025 µg/mL, partner 2 µg/mL	0.294
S. pneumoniae D39V, first compound 0.025 µg/mL, partner 4 µg/mL	0.0703
S. pneumoniae D39V, first compound 0.05 µg/mL, partner 1 µg/mL	0.179
S. pneumoniae D39V, first compound 0.05 µg/mL, partner 2 µg/mL	0.114
S. pneumoniae D39V, first compound 0.05 µg/mL, partner 4 µg/mL	0.0475

fitness, one replicate
Conditions	first compound 0.0039 µg/mL	first compound 0.0078 µg/mL	first compound 0.015 µg/mL	first compound 0.0156 µg/mL	first compound 0.03 µg/mL	first compound 0.06 µg/mL
B. subtilis 168, partner 0.25 µg/mL	≥ 1	0.863	–	0.839	–	–
B. subtilis 168, partner 0.5 µg/mL	0.984	0.844	–	0.868	–	–
B. subtilis 168, partner 1 µg/mL	0.96	0.886	–	0.883	–	–
S. pneumoniae D39V, partner 0.125 µg/mL	–	–	0.898	–	0.751	0.642
S. pneumoniae D39V, partner 0.25 µg/mL	–	–	0.87	–	0.799	0.667
S. pneumoniae D39V, partner 0.5 µg/mL	–	–	0.899	–	0.836	0.645

— the supplement of paper PMC10627819
